Data published in patent publication US20140128337A1, “Curcuminoids in Combination Docetaxel for the Treatment of Cancer and Tumour Metastasis” (Institut National de la Sante et de la Recherche Medicale …, priority 2009, published 2014).

Legend:
[1] = biological target: T1, P-glycoprotein (Pgp) (Homo sapiens, UniProt P08183); experiment: Inhibition of [3H]-VBL efflux by MDCK-MDR1 cells; assay type: cell-based; conditions: CV-3988 10 uM, 30-min pre-exposure
T1 construct: expressed in transfected cells; host or cells: MDCK (canine kidney) cells stably transfected with human MDR1
Procedure: Inhibition of [^3H]-VBL efflux by MDCK-MDR1 cells: [^3H]-VBL was determined by scintillation counting accordingly to (Barthomeuf et al. Cancer Chemother Pharmacol 2005; 56: 173-81). […] The cells were then exposed for 120 min to 20 nM of ^3H-VBL (0.23 μCi). ^3H-VBL accumulation was stopped by washing the cells (5-fold) with cold PBS (150 mM NaCl, 2.7 mM KCl, 1.3 mM KH2PO4, 8.1 mM, Na2HPO4, pH 7.4). The cells were lysed with 0.1% Triton X-100 and the radioactivity was counted.

[2] = test system: MCF7 cells; experiment: MCF7 cell survival, Ho assay; assay type: cell-based, human; conditions: DTX 5 uM (clinical dose), 72 h, P<0.01
Procedure: (§1) The drugs were administered in DMSO 0.5%. Cell proliferation and attachment to the matrix were determined by measuring the amount of resazurin reduced by esterases from living cells (RTT assay) and by measuring the amount of attached biomass with the DNA binding agent (Ho 33342). Fluorescence was assayed at 590/630 nm (RTT assay) or 360/460 nm (Ho assay) as described in (Barthomeuf et al. Planta Med 2002).
Treatment by DTX at clinical dose contributes to induction of drug resistance. […] We finally examined the effect of DTX on MCF7 cell survival and HIF-1 transcription. In this aim, DTX was tested at 2 concentrations 1 nM and 5 uM (a concentration representative of blood levels after DTX administration, Investigator Brochure 2002). Al tests were carried out on highly proliferative cells cultured in MEM medium supplemented with 10% FBS. Survival was assayed with the Ho assay after 6 h and 72 h.

[3] = DTX treatment alone; cited from earlier work
[4] = test system: HIF-1α; experiment: Western blot of HIF-1α in MCF7 cells; assay type: cell-based, human
Procedure: Western blot: After treatment, control and treated cells were washed with PBS, then incubated in PBS containing 1 mM of each NaF and Na3VO4 and solubilized on ice in lysis buffer [150 mM NaCl, 10 mM Tris-HCl, pH 7.4, 1 mM EDTA, 1 mM EGTA, 1 mM NaF, 1 mM Na3VO4, 0.5% (v/v) Nonidet P-40, and 1% (v/v) Triton X-100] or in FosRipa buffer (10 mM Tris/HCl pH 7.5, 250 mM NaCl, 0.1% SDS, 1% Nonidet P40, 1% sodium deoxycholate). […] Protein concentrations and Western blotting was performed according to standard procedures. […] Mouse monoclonal antisera directed against HIF-1α or survivin were used as primary antibodies and horseradish peroxidase-coupled anti-mouse (Dako) as secondary antibodies.
Then HIF-1α was assessed by Western blotting.

[5] = test system: survivin; experiment: Western blot of survivin in MCF7 cells; assay type: cell-based, human; conditions: MCF7, DTX at clinical doses
Procedure: Western blot: After treatment, control and treated cells were washed with PBS, then incubated in PBS containing 1 mM of each NaF and Na3VO4 and solubilized on ice in lysis buffer [150 mM NaCl, 10 mM Tris-HCl, pH 7.4, 1 mM EDTA, 1 mM EGTA, 1 mM NaF, 1 mM Na3VO4, 0.5% (v/v) Nonidet P-40, and 1% (v/v) Triton X-100] or in FosRipa buffer (10 mM Tris/HCl pH 7.5, 250 mM NaCl, 0.1% SDS, 1% Nonidet P40, 1% sodium deoxycholate). When needed insoluble pellets were solubilized in Laemmli samples buffer (62.5 mM Tris-HCl pH 6.8, 2.4% SDS, 100 mM DDT, 10% glycerol, 1 mM EDTA, 0.001% bromphenol blue), heated for 5 min at 96° C. and centrifuged briefly before loading. Protein concentrations and Western blotting was performed according to standard procedures. Equal amounts of protein (50 μg) were loaded for separation via 7.5% SDS-PAGE. Mouse monoclonal antisera directed against HIF-1α or survivin were used as primary antibodies and horseradish peroxidase-coupled anti-mouse (Dako) as secondary antibodies.

[6] = test system: panel of cancer lines issued from human solid tumors; experiment: Antiproliferative effect on a panel of cancer lines, resazurin reduction test; assay type: cell-based; conditions: curcumin 10 uM
Procedure: (§2) Cell culture: Madine Darby canine kidney (MDCK-MDR1) cells, provided by Amanda Yancy (AstraZeneca Pharmaceuticals), were cultured in DMEM supplemented with 10% FBS as reported previously (Barthomeuf et al. 2005). Human primary fibroblasts were purchased from Biopredic International (Rennes, France). Human MCF7 (ER+breast), A549 (non small cell lung), PC3 (androgen-resistant prostate) DLD1 (colon), PA1 (ovary), MDA-mb-231 (ER-, PTEN positive), MDA-mb-468 (ER-, PTEN negative) carcinoma and U87 (glioblastoma) lines were purchased from the European Collection of Cell Cultures (ECACC,
(§3) Salibury, UK) or the American Type Culture Collection (ATCC, Manassas, Va.). Cells were cultured in modified Eagle's medium (MEM) supplemented with 10% fetal calf serum, 2 mM L-glutamine and 100 units/ml penicillin, and 100 μg/ml streptomycin (Barthomeuf et al. 2002) or MEM supplemented with 1 mM sodium pyruvate and containing 10% FBS and antibiotics (U-87). […]
as §1, with “2002). […]” for “2002).”

[7] = test system: U87 glioblastoma cells; experiment: Curcumin/DTX co-treatment, cell proliferation and survival; assay type: cell-based, human; conditions: curcumin 10 uM + DTX 1 nM, 48 h co-treatment
Procedure: as §2, §3, §1

[8] = test system: advanced colorectal cancer; conditions: 36-180 mg/day; cited from earlier work
[9] = test system: PAF synthesis; experiment: PAF synthesis, incorporation of [3H]-acetate into lyso-PAF in MDCK-MDR1 cells; assay type: cell-based, canine; conditions: curcumin 30 min, doses observable in man
Procedure: PAF synthesis: PAF synthesis was measured by incorporation of [^3H]-acetate into lyso-PAF accordingly to the protocol described in (Bernatchez PN et al. Br. J. Pharmacol. 2001 134: 1252-1262 and Barthomeuf C. et al. Free Rad Biol Med 2006, 40: 581-590). […] The reaction was stopped by addition of acidified methanol. Polar lipids were isolated according to Bligh and Dyer. After solvent evaporation under N2, ^3H-PAF was purified by HPLC on silica gel, and quantified by radioactivity counting vs authentic ^3H-PAF.

[10] = test system: primary fibroblasts; experiment: Cell proliferation, resazurin reduction test (RTT assay); assay type: cell-based, human; conditions: curcumin 10 uM
Procedure: as §2
(§4) Salibury, UK) or the American Type Culture Collection (ATCC, Manassas, Va.). Cells were cultured in modified Eagle's medium (MEM) supplemented with 10% fetal calf serum, 2 mM L-glutamine and 100 units/ml penicillin, and 100 μg/ml streptomycin (Barthomeuf et al. 2002) or MEM supplemented with 1 mM sodium pyruvate and containing 10% FBS and antibiotics (U-87). The cells were cultured at 37° C. under a humidified 95%-5% (v/v) mixture of air and CO2.
as §1
(§5) The human tested lines include highly invasive U87 glioblastoma cells (SphK1 overexpression), 5 human carcinoma lines: weakly invasive MCF7 (estrogen receptor (ER) and PTEN positive) and metastatic MDA-mb-468 (ER and PTEN lack of function) breast carcinoma cells, metastatic PC3 (androgen resistant, p53 loss of function) prostate carcinoma cells, highly proliferative PA1 ovarian carcinoma cells and DLD1 (Pgp-positive) colon carcinoma cells. Primary fibroblasts were used as a model of human non-tumoral cells. Assays were conducted on exponentially growing human cells cultured overnight in MEM supplemented with 10% FBS. […] This supports a value of curcumin/DTX combination for treatment of tumors displaying these characteristics.

[11] = test system: MDA-mb-468 breast carcinoma cells; experiment: as above; assay type: cell-based, human
Procedure: as §2, §4, §1, §5

[12] = test system: PA1 ovarian carcinoma cells; experiment: as above; assay type: cell-based, human; conditions: curcumin 10 uM
Procedure: as §2, §4, §1, §5

T1 sequence (P08183 whole entry): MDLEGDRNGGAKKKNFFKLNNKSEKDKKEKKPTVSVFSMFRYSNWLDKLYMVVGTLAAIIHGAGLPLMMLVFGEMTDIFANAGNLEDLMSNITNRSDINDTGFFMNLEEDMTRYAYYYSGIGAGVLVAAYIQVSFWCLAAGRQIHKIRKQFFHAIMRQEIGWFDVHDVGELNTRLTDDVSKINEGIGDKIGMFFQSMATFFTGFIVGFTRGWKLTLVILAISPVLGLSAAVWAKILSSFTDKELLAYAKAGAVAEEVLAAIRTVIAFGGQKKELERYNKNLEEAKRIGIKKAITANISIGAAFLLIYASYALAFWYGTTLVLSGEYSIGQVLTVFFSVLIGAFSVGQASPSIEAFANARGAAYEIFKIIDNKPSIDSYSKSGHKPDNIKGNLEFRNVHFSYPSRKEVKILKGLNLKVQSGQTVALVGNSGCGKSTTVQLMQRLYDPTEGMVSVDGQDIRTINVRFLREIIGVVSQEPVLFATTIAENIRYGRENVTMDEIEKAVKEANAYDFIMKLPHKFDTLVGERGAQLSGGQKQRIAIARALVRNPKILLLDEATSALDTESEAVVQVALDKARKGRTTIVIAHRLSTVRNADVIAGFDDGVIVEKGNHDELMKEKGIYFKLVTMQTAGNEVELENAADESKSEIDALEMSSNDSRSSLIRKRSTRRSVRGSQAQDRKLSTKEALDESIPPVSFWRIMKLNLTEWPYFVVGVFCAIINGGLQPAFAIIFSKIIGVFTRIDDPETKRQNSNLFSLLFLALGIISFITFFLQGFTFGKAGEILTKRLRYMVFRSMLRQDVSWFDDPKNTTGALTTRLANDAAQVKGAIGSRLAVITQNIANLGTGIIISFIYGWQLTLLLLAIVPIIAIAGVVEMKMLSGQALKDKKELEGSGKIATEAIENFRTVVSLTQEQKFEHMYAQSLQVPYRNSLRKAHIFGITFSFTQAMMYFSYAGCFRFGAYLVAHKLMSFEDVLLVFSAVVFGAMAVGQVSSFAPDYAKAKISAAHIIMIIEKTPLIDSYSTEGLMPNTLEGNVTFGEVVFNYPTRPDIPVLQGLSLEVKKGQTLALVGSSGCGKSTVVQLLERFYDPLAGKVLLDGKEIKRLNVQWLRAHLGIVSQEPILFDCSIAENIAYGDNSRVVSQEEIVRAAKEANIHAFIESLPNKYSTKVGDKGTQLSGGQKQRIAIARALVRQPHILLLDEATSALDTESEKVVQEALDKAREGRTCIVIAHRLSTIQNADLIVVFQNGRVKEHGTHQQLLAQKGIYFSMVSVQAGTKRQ

CCCCCCCCCCCCCCCCCCNC(=O)OCC(COP(=O)([O-])OCC[n+]1ccsc1)OC (stereo not drawn) [CV-3988]
(3H)-VBL accumulation in MDCK-MDR1 cells [1]: promotes (^3H)-VBL accumulation

CC(=O)O[C@@]12CO[C@@H]1C[C@H](O)[C@@]1(C)C(=O)[C@H](O)C3=C(C)[C@@H](OC(=O)[C@H](O)[C@@H](NC(=O)OC(C)(C)C)c4ccccc4)C[C@@](O)([C@@H](OC(=O)c4ccccc4)[C@H]21)C3(C)C [DTX, (2R,3S)-N-carboxy-3-phenylisoserine, N-tert-butyl ester, 13-ester with 5, 20-epoxy-1,2,4,7, 10, 13-hexahydroxytax-11-en-9-one 4-acetate 2-benzoate, trihydrate]
MCF7 survival decreased [2]: 92%
number of objective responses usually observed [3]: around 50%
HIF-1α in resistant sub-populations vs control ([4]; MCF7, DTX at clinical doses): higher amounts of HIF-1α than control cells
HIF-1α in resistant sub-populations vs control ([4]; MCF7, DTX at low concentration): less HIF-1α than control cells
survivin expression in surviving cells vs control [5]: higher amount of survivin than control cells

COc1cc(/C=C/C(=O)CC(=O)/C=C/c2ccc(O)c(OC)c2)ccc1O [curcumin, (1E,6E)-1,7-bis (4-hydroxy-3-methoxyphenyl)-1,6-heptadiene-3,5-dione]
growth of all tested tumor lines [6]: strongly impairs the growth
effect of co-treatment on DTX efficacy [7]: enhances in a synergistic manner DTX efficacy
stabilisation, patients [8]: 5/15
HIF-1α level after curcumin post-treatment ([4]; MCF7, DTX 5 uM 72 h, then 6 h EGF 10 ng/mL + MG-132 with or without curcumin 10 uM): lower amount of HIF-1α
PAF synthesis [9]: down-regulation of PAF synthesis
toxicity for primary fibroblasts [10]: without significant toxicity
proliferation decreased ([11]; curcumin 10 uM): 23%
effect of co-treatment on DTX efficacy ([11]; curcumin 10 uM + DTX 1 nM, 48 h co-treatment): enhances in a synergistic manner DTX efficacy
proliferation of PA1 cells [12]: suppressed
